Tests used:
[1] = xn = mol fraction of the nth substance listed; details: 101 kPa, Liquid; for speed of sound: Pulse-echo method
[2] = refractive index (Na D-line) (dimensionless); xn = mol fraction of the nth substance listed; details: 101 kPa, Liquid, Standard Abbe refractometry

C1CCCCCCC1 [cyclooctane] + Cc1cc(C)cc(C)c1
Details | mass density, [1] [kg/m3] | refractive index, [2] | speed of sound, [1] [m/s]
298.15 K, x1 = 0.0496 | 858.9 | 1.49453 | 1338
298.15 K, x1 = 0.1026 | 856.8 | 1.49198 | 1339
298.15 K, x1 = 0.2035 | 852.7 | 1.48725 | 1341
298.15 K, x1 = 0.307 | 848.8 | 1.48253 | 1345
298.15 K, x1 = 0.4062 | 845.2 | 1.47807 | 1349
298.15 K, x1 = 0.5042 | 841.9 | 1.47384 | 1354
298.15 K, x1 = 0.598 | 839 | 1.46995 | 1359
298.15 K, x1 = 0.696 | 836.2 | 1.46606 | 1366
298.15 K, x1 = 0.8308 | 833.3 | 1.46115 | 1376
298.15 K, x1 = 0.8926 | 832.3 | 1.45905 | 1381
298.15 K, x1 = 0.9484 | 831.7 | 1.45738 | 1386
298.15 K, x1 = 1 | 831.5 | 1.45598 | 1391
313.15 K, x1 = 0.0517 | 846.6 | 1.48694 | 1277
313.15 K, x1 = 0.0872 | 845.2 | 1.48532 | 1278
313.15 K, x1 = 0.1842 | 841.3 | 1.48082 | 1280
313.15 K, x1 = 0.2935 | 837.2 | 1.4759 | 1283
313.15 K, x1 = 0.3891 | 833.8 | 1.47166 | 1287
313.15 K, x1 = 0.4882 | 830.4 | 1.46743 | 1291
313.15 K, x1 = 0.5857 | 827.5 | 1.4634 | 1296
313.15 K, x1 = 0.6847 | 824.6 | 1.45952 | 1302
313.15 K, x1 = 0.791 | 822.1 | 1.45559 | 1309
313.15 K, x1 = 0.8911 | 820.3 | 1.45214 | 1317
313.15 K, x1 = 0.939 | 819.7 | 1.45053 | 1321
313.15 K, x1 = 1 | 819.2 | 1.44877 | 1325

C1CCCCCCC1 [cyclooctane] + Cc1ccc(C)cc1
Details | mass density, [1] [kg/m3] | refractive index, [2] | speed of sound, [1] [m/s]
298.15 K, x1 = 0.0534 | 854.3 | 1.49055 | 1312
298.15 K, x1 = 0.1004 | 852.6 | 1.4883 | 1314
298.15 K, x1 = 0.2025 | 848.8 | 1.48358 | 1319
298.15 K, x1 = 0.303 | 845.4 | 1.4792 | 1325
298.15 K, x1 = 0.402 | 842.4 | 1.47506 | 1332
298.15 K, x1 = 0.4986 | 839.6 | 1.47129 | 1339
298.15 K, x1 = 0.599 | 837.1 | 1.46764 | 1348
298.15 K, x1 = 0.6981 | 835 | 1.46424 | 1357
298.15 K, x1 = 0.7968 | 833.3 | 1.46119 | 1367
298.15 K, x1 = 0.8926 | 832 | 1.4585 | 1377
298.15 K, x1 = 0.9504 | 831.5 | 1.45707 | 1384
298.15 K, x1 = 1 | 831.5 | 1.45598 | 1391
313.15 K, x1 = 0.0485 | 841.6 | 1.48247 | 1250
313.15 K, x1 = 0.0874 | 840.2 | 1.48077 | 1252
313.15 K, x1 = 0.1848 | 836.7 | 1.47651 | 1256
313.15 K, x1 = 0.2948 | 833.2 | 1.472 | 1262
313.15 K, x1 = 0.3853 | 830.4 | 1.46825 | 1268
313.15 K, x1 = 0.4829 | 827.7 | 1.46454 | 1274
313.15 K, x1 = 0.5809 | 825.3 | 1.46094 | 1282
313.15 K, x1 = 0.6837 | 823.1 | 1.45755 | 1291
313.15 K, x1 = 0.7877 | 821.3 | 1.45432 | 1301
313.15 K, x1 = 0.8888 | 820 | 1.45148 | 1312
313.15 K, x1 = 0.9413 | 819.5 | 1.4501 | 1318
313.15 K, x1 = 1 | 819.2 | 1.44877 | 1325

C1CCCCCCC1 [cyclooctane] + Cc1cccc(C)c1
Details | mass density, [1] [kg/m3] | refractive index, [2] | speed of sound, [1] [m/s]
298.15 K, x1 = 0.0545 | 857.4 | 1.49186 | 1322
298.15 K, x1 = 0.0993 | 855.5 | 1.48961 | 1324
298.15 K, x1 = 0.2059 | 851.1 | 1.4845 | 1328
298.15 K, x1 = 0.3074 | 847.4 | 1.4799 | 1333
298.15 K, x1 = 0.3933 | 844.4 | 1.47623 | 1338
298.15 K, x1 = 0.5031 | 841 | 1.47176 | 1346
298.15 K, x1 = 0.6002 | 838.2 | 1.46806 | 1353
298.15 K, x1 = 0.6993 | 835.9 | 1.46461 | 1361
298.15 K, x1 = 0.8198 | 833.5 | 1.46072 | 1372
298.15 K, x1 = 0.8909 | 832.4 | 1.45869 | 1379
298.15 K, x1 = 0.9503 | 831.8 | 1.45714 | 1385
298.15 K, x1 = 1 | 831.5 | 1.45598 | 1391
313.15 K, x1 = 0.0506 | 844.7 | 1.48423 | 1260
313.15 K, x1 = 0.0888 | 843.1 | 1.48242 | 1262
313.15 K, x1 = 0.1861 | 839.3 | 1.47779 | 1265
313.15 K, x1 = 0.2924 | 835.4 | 1.47308 | 1270
313.15 K, x1 = 0.3795 | 832.4 | 1.46944 | 1275
313.15 K, x1 = 0.487 | 829.1 | 1.46522 | 1282
313.15 K, x1 = 0.5832 | 826.4 | 1.46159 | 1289
313.15 K, x1 = 0.6823 | 824 | 1.45808 | 1296
313.15 K, x1 = 0.7874 | 821.9 | 1.45469 | 1305
313.15 K, x1 = 0.8879 | 820.3 | 1.45169 | 1315
313.15 K, x1 = 0.9389 | 819.7 | 1.45047 | 1320
313.15 K, x1 = 1 | 819.2 | 1.44877 | 1326

C1CCCCCCC1 [cyclooctane] + Cc1ccccc1C
Details | mass density, [1] [kg/m3] | refractive index, [2] | speed of sound, [1] [m/s]
298.15 K, x1 = 0.0513 | 871.8 | 1.49887 | 1347
298.15 K, x1 = 0.1015 | 868.4 | 1.49595 | 1348
298.15 K, x1 = 0.2 | 862.5 | 1.49039 | 1349
298.15 K, x1 = 0.3067 | 856.9 | 1.48468 | 1351
298.15 K, x1 = 0.4026 | 852.2 | 1.47987 | 1354
298.15 K, x1 = 0.5037 | 847.6 | 1.47508 | 1358
298.15 K, x1 = 0.6262 | 842.6 | 1.46963 | 1364
298.15 K, x1 = 0.7007 | 839.9 | 1.46653 | 1368
298.15 K, x1 = 0.8028 | 836.5 | 1.4626 | 1375
298.15 K, x1 = 0.8953 | 833.9 | 1.45933 | 1381
298.15 K, x1 = 0.9498 | 832.5 | 1.45752 | 1386
298.15 K, x1 = 1 | 831.5 | 1.45598 | 1391
313.15 K, x1 = 0.0508 | 859.7 | 1.49181 | 1289
313.15 K, x1 = 0.0905 | 857.3 | 1.48933 | 1289
313.15 K, x1 = 0.1697 | 852.7 | 1.48503 | 1289
313.15 K, x1 = 0.2967 | 845.9 | 1.47816 | 1291
313.15 K, x1 = 0.3824 | 841.6 | 1.47392 | 1293
313.15 K, x1 = 0.4839 | 836.9 | 1.46911 | 1296
313.15 K, x1 = 0.5878 | 832.4 | 1.46435 | 1300
313.15 K, x1 = 0.6869 | 828.6 | 1.46018 | 1305
313.15 K, x1 = 0.7892 | 825.1 | 1.45617 | 1310
313.15 K, x1 = 0.8891 | 822 | 1.45244 | 1317
313.15 K, x1 = 0.9368 | 820.7 | 1.45072 | 1321
313.15 K, x1 = 1 | 819.2 | 1.44877 | 1326

Source: the NIST ThermoML archive (doi:10.1021/je901020a)
